According to patent publication US20140378496A1, “OPIOID […] 3-HYDROXYA[…] TREATING PAIN” (SLX PHARMACEUTICALS, LLC, priority 2011, published 2014):

Test system: visceral pain model in mice
Assay: Acetic acid writhing protocol (abdominal contortion test), visceral pain model in mice
Type: in vivo, male Swiss Webster mice
Details: 50-400 mg/kg PO; lowest dose (50 mpk) removed as apparent outlier
Method: In order to test the analgesic activity of the combination of an opioid (hydrocodone) and 3-hydroxyacetanilide, both compounds were tested separately and in combination in a visceral pain model in mice.
Experimental animals: One hundred fifty-five 4-week old, male Swiss Webster mice (stock number 024) were purchased from Charles River Laboratories (Portage, Mich.). The study animals were allowed an acclimation period of 1-2 weeks prior to dose initiation. The mice were housed 4-6 per cage and maintained in the Innovive caging system (San Diego, Calif.) upon arrival at. In accordance with the Guide for Care and Use of Laboratory Animals (Eighth Edition), mouse rooms were maintained at temperatures of 66-75 degrees Fahrenheit and relative humidity between 30% and 70%. Cages were monitored daily to ensure the Innovive system maintained 50 air changes per hour and positive pressure. The rooms were lit by artificial light for 12 hours each day (7:00 AM -7:00 PM). […]
Animals were allowed to acclimate to the testing room for a minimum of 1 hour prior to the experiment. […] The number of writhes over a 5 min duration were counted (5-10 and 15-20 min post-dose) starting 5 min after acetic acid administration. […]

## CC(=O)Nc1cccc(O)c1 [3-hydroxyacetanilide]
  shape of dose response curve (% AA vs dose): bell-shaped
